Experimental data as given in patent US20240408086A1, “USE OF LUVADAXISTAT FOR THE TREATMENT OF COGNITIVE IMPAIRMENT” (TAKEDA PHARMACEUTICAL COMPANY LIMITED, priority 2021, published 2024).

Tested on: adult patients with persistent negative symptoms of schizophrenia
Format: in vivo, human
Excerpt: To assess changes in cognitive impairment associated with schizophrenia (CIAS), secondary endpoints included the 12-week change from baseline in the Brief Assessment of Cognition in Schizophrenia (BACS) composite score, a measure of cognition across multiple domains, and the Schizophrenia Cognition Rating Scale (SCORS) score, a measure of day-to-day cognitive functioning requiring input from an adult informant. Secondary endpoints were not corrected for multiplicity.
The BACS is specifically designed to measure treatment-related improvements in cognition and includes alternate forms. BACS is a reliable and sensitive measure of cognitive function in schizophrenia. The BACS is a cognition assessment battery that assesses 6 domains of cognitive function found to be consistently impaired in schizophrenia: verbal memory; working memory; motor speed; attention; executive functions; and verbal fluency. The primary measure from each test of the BACS is standardized by creating T-scores whereby the mean of the test session of a matched reference healthy participant is set to 50 and the standard deviation set to 10.

[1] = 50 mg once daily, MMRM, preliminary analysis
[2] = 50 mg once daily, preliminary analysis

SMILES: O=c1[nH]nc(CCc2ccc(C(F)(F)F)cc2)cc1O [Compound (I), luvadaxistat]
- BACS composite score, effect size versus placebo (50 mg once daily, 12 weeks, p=0.031, not corrected for multiplicity): 0.4
- BACS Verbal Memory Cognition Domain, Difference from Placebo for Week 12, LS Mean (SE) (50 mg once daily, MMRM, one-sided unadjusted p 0.038, preliminary analysis): 2.6 (1.43)
- BACS Composite Score, Difference from Placebo for Week 12, LS Mean (SE) (50 mg once daily, MMRM, one-sided unadjusted p 0.046, preliminary analysis): 1.9 (1.15)
- BACS Verbal Memory Cognition Domain, Difference from Placebo for Week 6, LS Mean (SE) (50 mg once daily, MMRM, one-sided unadjusted p 0.071, preliminary analysis): 1.9 (1.29)
- BACS Composite Score, Difference from Placebo for Week 6, LS Mean (SE) (50 mg once daily, MMRM, one-sided unadjusted p 0.096, preliminary analysis): 1.3 (1.01)
- BACS Motor Speed Cognition Domain, Difference from Placebo for Week 12, LS Mean (SE) (50 mg once daily, MMRM, one-sided unadjusted p 0.101, preliminary analysis): 1.5 (1.17)
- BACS Working Memory Cognition Domain, Difference from Placebo for Week 12, LS Mean (SE) (50 mg once daily, MMRM, one-sided unadjusted p 0.413, preliminary analysis): 0.3 (1.34)
- BACS Motor Speed Cognition Domain, Difference from Placebo for Week 6, LS Mean (SE) (50 mg once daily, MMRM, one-sided unadjusted p 0.440, preliminary analysis): 0.2 (1.26)
- BACS Working Memory Cognition Domain, Difference from Placebo for Week 6, LS Mean (SE) (50 mg once daily, MMRM, one-sided unadjusted p 0.507, preliminary analysis): 0.0 (1.15)
- BACS Composite Score, Adjusted Change from Baseline to Week 6, LS Mean (SE) [1]: 0.9 (0.81)
- BACS Composite Score, Adjusted Change from Baseline to Week 12, LS Mean (SE) [1]: 2.7 (0.92)
- BACS Motor Speed Cognition Domain, Adjusted Change from Baseline to Week 6, LS Mean (SE) [1]: 0.1 (1.00)
- BACS Motor Speed Cognition Domain, Adjusted Change from Baseline to Week 12, LS Mean (SE) [1]: 1.0 (0.93)
- BACS Verbal Memory Cognition Domain, Adjusted Change from Baseline to Week 6, LS Mean (SE) [1]: 0.6 (1.04)
- BACS Verbal Memory Cognition Domain, Adjusted Change from Baseline to Week 12, LS Mean (SE) [1]: 1.9 (1.13)
- BACS Working Memory Cognition Domain, Adjusted Change from Baseline to Week 6, LS Mean (SE) [1]: 0.0 (0.92)
- BACS Working Memory Cognition Domain, Adjusted Change from Baseline to Week 12, LS Mean (SE) [1]: 0.9 (1.06)
- BACS composite score, 12-week LS mean change from baseline (50 mg once daily, placebo 2.3): 4.6
- BACS Composite Score, Change from Baseline to Week 6, Mean (SD) [2]: 1.7 (5.81)
- BACS Composite Score, Change from Baseline to Week 6, Median [2]: 2.0
- BACS Composite Score, Change from Baseline to Week 12, Mean (SD) [2]: 3.8 (5.91)
- BACS Composite Score, Change from Baseline to Week 12, Median [2]: 3.0
- BACS Composite Score, Week 6, Mean (SD) [2]: 35.4 (14.53)
- BACS Composite Score, Week 6, Median [2]: 34.0
- BACS Composite Score, Week 12, Mean (SD) [2]: 37.7 (13.30)
- BACS Composite Score, Week 12, Median [2]: 37.5
- BACS Motor Speed Cognition Domain, Change from Baseline to Week 6, Mean (SD) [2]: 1.7 (5.73)
- BACS Motor Speed Cognition Domain, Change from Baseline to Week 6, Median [2]: 1.0
- BACS Motor Speed Cognition Domain, Change from Baseline to Week 12, Mean (SD) [2]: 2.6 (6.80)
- BACS Motor Speed Cognition Domain, Change from Baseline to Week 12, Median [2]: 1.0
- BACS Motor Speed Cognition Domain, Week 6, Mean (SD) [2]: 40.6 (13.61)
- BACS Motor Speed Cognition Domain, Week 6, Median [2]: 40.0
- BACS Motor Speed Cognition Domain, Week 12, Mean (SD) [2]: 42.0 (12.93)
- BACS Motor Speed Cognition Domain, Week 12, Median [2]: 41.5
- BACS Verbal Memory Cognition Domain, Change from Baseline to Week 6, Mean (SD) [2]: 1.6 (7.40)
- BACS Verbal Memory Cognition Domain, Change from Baseline to Week 6, Median [2]: 0.0
- BACS Verbal Memory Cognition Domain, Change from Baseline to Week 12, Mean (SD) [2]: 3.2 (7.87)
- BACS Verbal Memory Cognition Domain, Change from Baseline to Week 12, Median [2]: 4.0
- BACS Verbal Memory Cognition Domain, Week 6, Mean (SD) [2]: 41.7 (11.59)
- BACS Verbal Memory Cognition Domain, Week 6, Median [2]: 44.5
- BACS Verbal Memory Cognition Domain, Week 12, Mean (SD) [2]: 42.9 (12.41)
- BACS Verbal Memory Cognition Domain, Week 12, Median [2]: 43.5
- BACS Working Memory Cognition Domain, Change from Baseline to Week 6, Mean (SD) [2]: 1.0 (6.60)
- BACS Working Memory Cognition Domain, Change from Baseline to Week 6, Median [2]: 0.0
- BACS Working Memory Cognition Domain, Change from Baseline to Week 12, Mean (SD) [2]: 2.1 (6.61)
- BACS Working Memory Cognition Domain, Change from Baseline to Week 12, Median [2]: 1.0
- BACS Working Memory Cognition Domain, Week 6, Mean (SD) [2]: 40.8 (14.10)
- BACS Working Memory Cognition Domain, Week 6, Median [2]: 42.0
- BACS Working Memory Cognition Domain, Week 12, Mean (SD) [2]: 42.0 (13.95)
- BACS Working Memory Cognition Domain, Week 12, Median [2]: 42.5
- BACS Attention Cognition Domain, Change from Baseline to Week 6, Mean (SD) (50 mg, Week 6): 0.9 (7.74)
- BACS Attention Cognition Domain, Change from Baseline to Week 6, Median (50 mg, Week 6): 0.0
- BACS Attention Cognition Domain, Week 6, Mean (SD) (50 mg, Week 6): 36.0 (14.78)
- BACS Attention Cognition Domain, Week 6, Median (50 mg, Week 6): 34.0
- BACS Executive Functions Cognition Domain, Change from Baseline to Week 6, Mean (SD) (50 mg, Week 6): 1.6 (10.55)
- BACS Executive Functions Cognition Domain, Change from Baseline to Week 6, Median (50 mg, Week 6): 2.0
- BACS Executive Functions Cognition Domain, Week 6, Mean (SD) (50 mg, Week 6): 44.9 (11.66)
- BACS Executive Functions Cognition Domain, Week 6, Median (50 mg, Week 6): 48.5
- BACS Verbal Fluency Cognition Domain, Change from Baseline to Week 6, Mean (SD) (50 mg, Week 6): −0.2 (5.57)
- BACS Verbal Fluency Cognition Domain, Change from Baseline to Week 6, Median (50 mg, Week 6): 0.0
- BACS Verbal Fluency Cognition Domain, Week 6, Mean (SD) (50 mg, Week 6): 39.9 (10.86)
- BACS Verbal Fluency Cognition Domain, Week 6, Median (50 mg, Week 6): 38.0
- BACS Attention Cognition Domain, Adjusted Change from Baseline to Week 6, LS Mean (SE) (50 mg, Week 6, MMRM): 1.0 (0.90)
